Assay results reported in patent US20250263404A1, “AMINOPYRIDINES AS ACTIVATORS OF PI3 KINASE” (UCL Business Ltd, priority 2021, published 2025).

Tests used:
[1] = molecular target: T1, G106V mutant of p110α (Homo sapiens, UniProt P42336, G106V); assay: FRET membrane binding, oncogenic mutant G106V; format: biochemical
T1 construct: Full-length p110α was expressed in a complex with full-length p85α (for biochemistry and HDX-MS); 6xHis followed by TEV protease site (N); made in house; host or cells: Spodoptera frugiperda Sf9 (plasmid JB35)
T1 sequence (P42336 whole entry G106V): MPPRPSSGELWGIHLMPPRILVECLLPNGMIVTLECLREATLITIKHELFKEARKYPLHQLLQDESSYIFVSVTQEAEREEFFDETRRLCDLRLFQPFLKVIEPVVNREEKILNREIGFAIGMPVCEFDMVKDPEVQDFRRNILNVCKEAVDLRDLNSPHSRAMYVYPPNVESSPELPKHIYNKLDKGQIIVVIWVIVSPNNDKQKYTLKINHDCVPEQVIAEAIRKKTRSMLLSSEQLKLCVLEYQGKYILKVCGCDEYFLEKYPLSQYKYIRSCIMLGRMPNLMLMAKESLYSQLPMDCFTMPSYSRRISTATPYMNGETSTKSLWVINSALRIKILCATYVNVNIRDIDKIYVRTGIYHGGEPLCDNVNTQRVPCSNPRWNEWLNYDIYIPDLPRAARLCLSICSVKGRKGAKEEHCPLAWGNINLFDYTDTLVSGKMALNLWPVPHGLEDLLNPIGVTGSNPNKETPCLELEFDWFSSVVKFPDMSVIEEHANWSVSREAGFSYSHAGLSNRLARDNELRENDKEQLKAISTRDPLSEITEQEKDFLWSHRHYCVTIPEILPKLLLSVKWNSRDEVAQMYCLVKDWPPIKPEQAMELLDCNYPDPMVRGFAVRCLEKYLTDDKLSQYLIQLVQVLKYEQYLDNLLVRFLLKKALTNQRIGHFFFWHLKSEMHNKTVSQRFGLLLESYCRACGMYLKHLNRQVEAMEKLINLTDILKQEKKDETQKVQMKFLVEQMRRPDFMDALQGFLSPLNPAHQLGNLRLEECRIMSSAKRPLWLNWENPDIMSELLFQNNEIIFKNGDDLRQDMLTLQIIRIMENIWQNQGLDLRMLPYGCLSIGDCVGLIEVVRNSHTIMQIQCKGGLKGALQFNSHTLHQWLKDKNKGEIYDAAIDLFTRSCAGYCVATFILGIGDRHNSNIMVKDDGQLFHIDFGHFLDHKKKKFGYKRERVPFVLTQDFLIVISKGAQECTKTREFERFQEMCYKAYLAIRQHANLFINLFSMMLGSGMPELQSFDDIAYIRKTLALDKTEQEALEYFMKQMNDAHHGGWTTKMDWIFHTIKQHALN
T1 sequence (P27986 whole entry partner): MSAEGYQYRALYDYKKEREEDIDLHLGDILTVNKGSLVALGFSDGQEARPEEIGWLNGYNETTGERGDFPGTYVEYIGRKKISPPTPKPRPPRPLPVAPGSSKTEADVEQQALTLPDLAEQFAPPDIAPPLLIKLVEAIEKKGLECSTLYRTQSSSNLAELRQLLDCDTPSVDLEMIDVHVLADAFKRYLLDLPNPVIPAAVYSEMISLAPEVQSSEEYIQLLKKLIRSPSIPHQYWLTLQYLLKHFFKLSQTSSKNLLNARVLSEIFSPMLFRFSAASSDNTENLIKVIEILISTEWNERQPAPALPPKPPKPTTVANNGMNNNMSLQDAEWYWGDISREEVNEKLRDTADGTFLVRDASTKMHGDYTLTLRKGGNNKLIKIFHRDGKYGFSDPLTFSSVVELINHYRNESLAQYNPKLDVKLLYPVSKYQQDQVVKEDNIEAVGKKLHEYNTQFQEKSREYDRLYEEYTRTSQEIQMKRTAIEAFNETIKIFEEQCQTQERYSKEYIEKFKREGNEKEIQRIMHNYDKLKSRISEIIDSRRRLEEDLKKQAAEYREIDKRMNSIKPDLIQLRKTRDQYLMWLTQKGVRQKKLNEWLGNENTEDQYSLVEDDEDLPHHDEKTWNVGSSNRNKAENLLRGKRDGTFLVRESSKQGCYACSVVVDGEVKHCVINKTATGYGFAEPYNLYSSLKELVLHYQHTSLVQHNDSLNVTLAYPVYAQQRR
Protocol: (§1) Co-stimulation of 1938 with pY led to an additive activatory effect for G106V, but not for the N345K and E545K mutants (FIG. 1f/FIG. 22f).
Membrane binding assays were performed as previously published (Burke, J. E. et al. Proc Natl Acad Sci USA 109, 15259-15264 (2012)). Briefly, liposomes were prepared with 5% (w/v) brain PtdIns(4,5)P2, 20% brain phosphatidylserine, 35% brain phosphatidylethanolamine, 15% brain phosphatidylcholine, 10% cholesterol, 5% sphingomyelin, and 10% dansyl-phosphatidylserine (Avanti Polar Lipids). PI3Kα was used at a final concentration of 0.5 μM. Protein solutions were preincubated with 10 μM pY or compounds for 10 min before addition of liposomes. Liposomes were used at a final concentration of 50 μg/ml. The reaction mixture contained 5 μl enzyme, 2 μl compound and 3 μl liposomes, all diluted in 30 mM HEPES, 50 mM NaCl, pH 7.4. The reaction was allowed to proceed for 10 min at room temperature in 384 black-polystyrene plates (Corning #3544) on an orbital shaker at 200 rpm. FRET signals were measured using PHERAStar (BMG) with a 280 nm excitation filter with 350 nm and 520 nm emission filters to measure Dansyl-PS FRET emissions, respectively. FRET signal shown as I-I0, where I is the intensity at 520 nm, and 10 is the intensity at 520 nm for the solution in the absence of protein.

[2] = molecular target: T2, E545K mutant of p110α (Homo sapiens, UniProt P42336, E545K); assay: ADP-Glo kinase assay, oncogenic mutant E545K; format: biochemical; details: mutant insensitive to pY
T2 construct: Full-length p110α was expressed in a complex with full-length p85α (for biochemistry and HDX-MS); 6xHis followed by TEV protease site (N); made in house; host or cells: Spodoptera frugiperda Sf9 (plasmid OP663)
T2 sequence (P42336 whole entry E545K): as the sequence (P42336 whole entry G106V) above, with V106G, E545K counted along it
T2 sequence (P27986 whole entry partner): as the sequence (P27986 whole entry partner) above
Protocol: as §1
Kinase reactions were performed with ADP-Glo kinase assay kit (Promega Corporation). The enzyme, substrate and compounds were diluted in reaction buffer (20 mM HEPES, 50 mM NaCl, 50 mM KCl, 3 mM MgCl2, 1 mM EGTA, 1 mM TCEP, pH 7.4). Final concentrations of PI3Kα and PI3Kδ used were 25 nM and 50 nM for PI3Kβ. Liposomes (5% brain PI(4,5)P2, 20% brain phosphatidylserine, 45% brain phosphatidylethanolamine, 15% brain phosphatidylcholine, 10% cholesterol, 5% sphingomyelin (Avanti Polar Lipids)) were used at a final concentration of 1 mg/ml. The pY sequence is ESDGG(pY)[…](pY)[…].
For characterisation of the effects of 1938 on in vitro PI3K enzymology, all reactions were performed at room temperature with 384 white-polystyrene plates (Corning #3574). The final DMSO concentration in the assay was between 0.5%-1.8%. The reaction mixture contained 2 μl PI3K enzyme, 2 μl compound and/or pY and 2 μl of liposome substrate mixed with ATP. ATP was used at a final concentration of 200 μM, unless otherwise stated. The enzyme and compounds were pre-incubated for 10 min prior to addition of substrate. […] For enzyme kinetic calculations, data was expressed as velocity (pmol of ADP generated/sec). […]

[3] = system: exposed rat sciatic nerves; assay: pAKT induction in exposed rat sciatic nerves; format: in vivo; details: direct injection or bathing, 5 μM
Protocol: Stimulated by these observations, we next tested 1938 in the sciatic nerve crush model in the rat, an in vivo model of peripheral nerve injury and regeneration. […] Immediately after the nerve crush (FIG. 5e, i-ii), 1938 was delivered via a single intraneural injection into the proximal crush site (FIG. 5e, iii) and via a minipump implanted adjacent to the nerve (FIG. 5e, iv), loaded with 1938 solution, for continuous delivery for the duration of the experiment. Analyses were conducted 3 weeks after injury.
Test experiment to assess if 1938 could induce pAkt generation in exposed rat sciatic nerves, adult male Sprague Dawley rats (>250 g; n=2) were anaesthetised using isoflurane, the left leg sciatic nerve was exposed and injected with 2 μl vehicle (sterile dH2O) or 1938 (5 μM in sterile dH2O). Meanwhile the sciatic nerve of the right leg was exposed and bathed in 250 μl of vehicle (sterile dH2O) or 1938 (5 μM in sterile dH2O). Each animal received one vehicle and one compound treatment. The treatments were left on for 30 min prior to washing the bathed nerves with sterile PBS and culling via sodium pentobarbital injection according to local regulations, the animal by schedule 1. Nerves were then harvested, washed in fresh 4° C. PBS and stored in a fresh vial before snap freezing in liquid nitrogen. […]

## CCN1CCN(c2ccc(Nc3cc(Nc4cccc5c4N(C(C)=O)CC5)ccn3)cc2)CC1 [Example 1938]
[1]
  membrane binding of G106V: did not increase
[2]
  activation of E545K mutant: further activated
[3]
  pAKT in sciatic nerve: induction of pAKT
